Consider one sequence from patent publication EP0896965A1, “Inhibitors of G-protein-beta, gamma subumit function” (BOEHRINGER MANNHEIM GMBH, priority 1997, dated 1999).

Assay [1] has as its system β-adrenergic receptor kinase. Nature of the assay: Inhibition of rhodopsin phosphorylation by β-adrenergic receptor kinase in the presence of Gβγ. In kind it is biochemical. Particulars: peptide at 100 µM; 1 µM rhodopsin, 2.5 nM βARK-1, 20 nM Gβγ. How it is done: (§1) • Figure 1 Inhibition of GTPase activity of Go by His6-tagged phosducin and its N-terminally truncated variants. […] The size of the short form of PhLP is indicated by the line on the top. Analysis with nonlinear curve fitting gave the following IC50-values: phosducin 15±1 nM, phosducin(64-246) 33±3 nM, phosducin( 138-246) 25±2 nM, phosducin(172-246) 95±13 nM, phosducin(204-246) 240±20 nM. Data are mean ± SEM of 3 independent experiments • Figure 2 Direct binding of His6-tagged phosducin and phosducin(204-246) to Gβγ. […] After washing, the Gβγ retained in the pellet was detected by SDS-polyacrylamide gel electrophoresis and Western blotting with antibodies directed against Gβ. • Figure 3 Inhibition of G0GTPase activity by synthetic peptides (top) derived from the C-terminus of phosducin. […] The activity of βARK was determined using rhodopsin in rod outer segments the substrate as in Schroeder and Lohse 1996. […] Phospholipase C-β2 activity was determined with a truncated version of PLC-β2 (PLC-mut) as described by Dietrich et al. (1994). […] Activity is expressed as pmoles of inositol 1.4.5-triphosphate formed per minute. • Figure 5 Amide region of a 500 MHz WATERGATED NOESY spectrum of the peptide phosducin(204-231) in 10 mM Phosphate buffer containing 100 mM NaCI and 10% D2O at pH = 6.5 and 277 K. The mixing time used was 250 ms. […]

A further assay deals with phospholipase C-β2. Briefly: Inhibition of Gβγ-stimulated phospholipase C-β2 activity. In kind it is biochemical. Particulars: peptide at 100 µM; Gβγ 600 nM. How it is done:
as §1

No end group written: not given here.

GDVESFLNEYGLLPEKEM [phosducin(215-232)]: in assay [1], the “antagonism of the stimulatory effects of Gβγ on the activity of the β-adrenergic receptor kinase” value was “antagonized”. Further, in the assay with phospholipase C-β2, the “antagonism of the stimulatory effects of Gβγ on the activity of phospholipase Cβ2” value is “antagonized”.
